# PubChem BioAssay AID2784 (Sanford-Burnham Center for Chemical Genomics, 2010)
# Calls of active or inactive are those of the source. The rule behind the calls is not given here.
# Biological target: Apelin receptor (Homo sapiens) (UniProt P35414)
# Experiment: apelin receptor inhibitors, concentration-response – cell-based, luminescence, uHTS hits, dose response (AID 2784)
# Settings: APJ beta-arrestin recruitment, antagonist mode
# Sequence of Apelin receptor (Homo sapiens) (P35414 whole entry, looked up): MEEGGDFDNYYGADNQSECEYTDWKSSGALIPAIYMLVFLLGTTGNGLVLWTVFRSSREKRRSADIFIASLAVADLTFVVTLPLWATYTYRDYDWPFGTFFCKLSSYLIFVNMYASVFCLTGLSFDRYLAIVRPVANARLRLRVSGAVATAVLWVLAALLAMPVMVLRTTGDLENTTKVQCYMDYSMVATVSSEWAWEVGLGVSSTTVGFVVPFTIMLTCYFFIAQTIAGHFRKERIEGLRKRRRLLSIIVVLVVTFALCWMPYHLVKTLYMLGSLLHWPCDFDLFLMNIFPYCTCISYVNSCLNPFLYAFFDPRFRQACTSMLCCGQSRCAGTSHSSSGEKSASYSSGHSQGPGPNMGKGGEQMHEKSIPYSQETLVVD
row,IC50,Compound
1,4.18 µM,O=[N+]([O-])c1ccc(O)c(/C=N/Nc2ccc(Cl)nn2)c1
2,10.6 µM,CCOC(=O)C1=NNC(C(=O)c2ccc(Cl)cc2)C1c1ccccc1 (configuration not stated)
3,> 40 µM (inactive),COc1ccc(NS(=O)(=O)c2cc([N+](=O)[O-])ccc2N/N=C\c2c(C)[nH]c3ccccc23)cc1
4,> 40 µM (inactive),Cn1c(O)c(N=Nc2nc(-c3ccccc3)cs2)c2ccccc21
5,inactive,O=C(CCCC(=O)Nc1cccc(Br)c1)N/N=C/c1cc([N+](=O)[O-])ccc1O
6,> 40 µM (inactive),CC1=NN(c2ccc(C)cc2)C(=O)/C1=C/c1ccc(-c2cc([N+](=O)[O-])ccc2O)o1
7,7.27 µM,COC(=O)C1NN=C(C(=O)c2ccc(Cl)cc2)C1c1ccc(OC)cc1 (configuration not stated)
8,> 40 µM (inactive),COc1ccc2c(c1)C(=O)[C@@H](O)[C@H](c1ccc(OC)c(Br)c1)O2
9,> 40 µM (inactive),Cc1ccc(NS(=O)(=O)c2cc([N+](=O)[O-])ccc2N/N=C/c2sc(N3CCOCC3)nc2-c2ccccc2)c(C)c1
10,> 40 µM (inactive),CC1=NN(C(N)=S)C(=O)C1N=Nc1ccc([N+](=O)[O-])cc1 (configuration not stated)
11,inactive,CCOC(=O)C1=C(C)NC2=C(C(=O)CC(c3cccs3)C2)C1c1cccs1 (configuration not stated)
12,inactive,CN(/N=C/c1cc([N+](=O)[O-])ccc1O)c1ccccc1
13,9.42 µM,Cc1ncc(CO)c(/C=N/Nc2ccc(C(F)(F)F)cn2)c1O
14,3.07 µM,COc1ccc2c(c1)C(=O)[C@H](O)[C@@H](c1ccc(OC)c(Br)c1)O2
15,> 40 µM (inactive),O=C(O)c1ccccc1N=Nc1c(O)[nH]c2ccc([N+](=O)[O-])cc12
16,> 40 µM (inactive),CCOCCOC(=O)C1=C(C)NC2=C(C(=O)CC(c3cccs3)C2)C1c1ccsc1 (configuration not stated)
17,> 40 µM (inactive),CC1=Nc2ccccc2/C1=C/c1sc(=N)n(-c2nccs2)c1O
